PMC8146789, “20-Hydroxyecdysone, from Plant Extracts to Clinical Use: Therapeutic Potential for the Treatment of Neuromuscular, Cardio-Metabolic and Respiratory Diseases” (Biomedicines, 2021)
Like-named read-outs stand apart in the source and are kept apart here.

How the values were obtained:
rats = settings: long-term feeding 0.2–2 g/kg/day, ref [121]; cited from earlier work
[1] = cited from earlier work; for dose dependence of plasma levels: increasing doses; for AUC0-t / Cmax / tmax: fasted; for AUC0-t / Cmax: n = 6, (SEM); for tmax: n = 6, (range)
[2] = genotoxicity (preclinical regulatory studies); settings: Biophytis, unpublished data
Source text: (§1) More recently, a purified to pharmaceutical grade 20E (≥97% 20E purity) was used as a drug candidate in preclinical regulatory studies including safety pharmacology, genotoxicity and repeated toxicology in rodents (rats) and non-rodents (dog).

Lambliasis = system: Lambliasis; design: method as in PMID 20614521; settings: 5 mg 4×/day, 10 days; ref [168]; cited from earlier work
[3] = design: method as in doi:10.1055/s-0032-1320272; settings: overweight, 2 × 50 mg/day; ref [170]; cited from earlier work
rabbits = settings: up to 100 mg/kg, ref [121]; cited from earlier work
[4] = repeated dose toxicity study (39-week); settings: dog, in vivo; dogs, 39-week repeated dose; Biophytis, unpublished data; read-out: No Observed Adverse Effect Level (NOAEL)
Source text: as §1

[5] = design: method as in PMID 4650153; settings: mice, oral; ref [122]; cited from earlier work
[6] = design: method as in PMID 33819630; settings: male Wistar rats, oral [3H]20E; ref [127]; cited from earlier work
[7] = design: method as in PMID 21439380, PMID 33819630; settings: mice, oral; ref [126],[127]; cited from earlier work
[8] = design: method as in doi:10.1007/BF02234932; settings: 15 mg/day, 10 days; ref [166]; cited from earlier work
[9] = 30 days, ref [158], cited from earlier work
[10] = oral; ref [127],[128]; cited from earlier work
bullfrogs = settings: up to 600 mg/kg in the lymph sinus, ref [121]; cited from earlier work
[11] = design: method as in PMID 15559639; settings: hepatitis B, 5 mg b.i.d., 30 days; ref [159]; cited from earlier work
[12] = alcohols; cited from earlier work
[13] = single oral 100 mg, ref [136],[137]
[14] = single oral 350 mg, ref [136],[137]
[15] = single oral 700 mg, ref [136],[137]
[16] = single oral 1400 mg, ref [136],[137]

SMILES: CC(C)(O)CC[C@@H](O)[C@](C)(O)[C@H]1CC[C@@]2(O)C3=CC(=O)[C@@H]4C[C@@H](O)[C@@H](O)C[C@]4(C)[C@H]3CC[C@]12C [20E, 2β,3β,14α,20R,22R,25-hexahydroxy-5β-cholest-7-en-6-one]
- subacute toxicity (rats): no subacute toxicity was observed
- safety profile, adverse events ([1]; humans, SAD 100 to 1400 mg, MAD up to 450 mg twice a day for 14 days, ref [180]): no serious adverse events during SAD and MAD
- dose dependence of plasma levels ([1]; humans, oral, ref [136],[137]): dose-related and also apparently saturable
- dose dependence of plasma levels ([1]; humans, oral, ref [136],[137], listed as BIO101): increased less that dose-proportionally
- bioavailability ([1]; humans, oral, ref [180]): rather low
- share of the urinary excretion within 4 h ([1]; humans, single dose, ref [136],[137]): half of this was excreted within 4 h
- administered 20E excreted in the urine ([1]; humans, within 12 h of a single dose, ref [136],[137]): About 2%
- serum biomarkers of muscular catabolism (myoglobin, CK-MB) ([1]; older adults, after 14 days of administration (MAD), ref [180]): reduced in subjects administered the highest dose
- AUC0-t [1, 13]: 767 (31.1) ng·h/mL
- Cmax [1, 13]: 141 (16.6) ng/mL
- tmax [1, 13]: 2.03 (1.00–3.02) h
- AUC0-t [1, 14]: 1924 (40.1) ng·h/mL
- Cmax [1, 14]: 317 (37.9) ng/mL
- AUC0-t [1, 15]: 2578 (22.9) ng·h/mL
- Cmax [1, 15]: 399 (24.7) ng/mL
- tmax [1, 15]: 3.00 (2.00–4.02) h
- AUC0-t [1, 16]: 4148 (15.9) ng·h/mL
- Cmax [1, 16]: 710 (20.2) ng/mL
- tmax [1, 16]: 3.50 (2.00–4.02) h
- genotoxic effects [2]: no genotoxic effects
- parasite elimination (Lambliasis): Therapy eliminated most parasites within 10 days
- change in C-reactive protein [3]: −38%
- change in body fat [3]: −7.6%
- change in body weight [3]: −1.3%
- change in total cholesterol [3]: −17%
- change in triglycerides [3]: −37%
- change in waist circumference [3]: −3.2%
- muscle increase [3]: +2.9%
- effects after administration (rabbits): no effects were seen
- NOAEL at 39 week [4]: 1000 mg/kg
- bioavailability [5]: low
- radioactivity crossing the intestinal tract, of that administered [5]: < 2%
- route of elimination [5]: essentially fecal
- radioactivity in urine, of the total radioactivity recovered [6]: 1.40%
- time to completed elimination of 20E and its metabolites [6]: ≤ 48 h
- time at which 20E starts to reach the large intestine [7]: ca. 30 min
- kidney function and microcirculation [8]: Improvement of kidney function and of microcirculation
- sexual function output ([9]; 5 mg 3×/day, age 40–60 M): Improvement of sexual function during recovery from myocardial infarction
- sexual function output ([9]; 5 mg, 2×/day): Improved sperm quality and copulative function in patients with disturbed spermatogenesis as a complication of urologic diseases
- bioavailability [10]: ca. 1%
- effects after administration (bullfrogs): no effects were seen
- liver state [11]: In case of hepatitis B, improvement of liver state
- solubility [12]: highly soluble in alcohols
